Literature values in patent US6420311B1, “Polyether diamine—based surfactant adjuvants and compositions thereof” (Huntsman Petrochemical Corporation, priority 1999, dated 2002).

Conditions: free acid form

For `O=C(O)CNCP(=O)(O)O` [glyphosate, N-phosphonomethylglycine], the water solubility is given as “low”.
